Assay results reported in PMC3798018 (Nature chemical biology, 2009).

Key:
[1] = tested on: non-HKD-containing bacterial (Streptomyces chromofuscus) PLD; details: read-out: IC50 S. chromofuscus PLD; in vitro; cited from earlier work
human PLD1b = details: read-out: IC50 human PLD1b; in vitro; cited from earlier work
[2] = tested on: MDA-231 human breast cancer cell line; assay: Transwell matrigel invasion assay, MDA-231; assay type: cell-based; details: MDA-231, 20 µM, 48 h
[3] = tested on: 4T1 mouse metastatic breast cancer line; assay: Transwell matrigel invasion assay, 4T1; assay type: cell-based; details: 48 h
PMT cells = assay: Transwell matrigel invasion assay, PMT; assay type: cell-based, mouse; details: 20 µM, 48 h
rat PLD1.d311 = biological target: T1, rat PLD1.d311 (Rattus norvegicus, UniProt P70496); details: no noticeable difference between the two
T1 sequence (P70496 312-1036 isoform P70496-2): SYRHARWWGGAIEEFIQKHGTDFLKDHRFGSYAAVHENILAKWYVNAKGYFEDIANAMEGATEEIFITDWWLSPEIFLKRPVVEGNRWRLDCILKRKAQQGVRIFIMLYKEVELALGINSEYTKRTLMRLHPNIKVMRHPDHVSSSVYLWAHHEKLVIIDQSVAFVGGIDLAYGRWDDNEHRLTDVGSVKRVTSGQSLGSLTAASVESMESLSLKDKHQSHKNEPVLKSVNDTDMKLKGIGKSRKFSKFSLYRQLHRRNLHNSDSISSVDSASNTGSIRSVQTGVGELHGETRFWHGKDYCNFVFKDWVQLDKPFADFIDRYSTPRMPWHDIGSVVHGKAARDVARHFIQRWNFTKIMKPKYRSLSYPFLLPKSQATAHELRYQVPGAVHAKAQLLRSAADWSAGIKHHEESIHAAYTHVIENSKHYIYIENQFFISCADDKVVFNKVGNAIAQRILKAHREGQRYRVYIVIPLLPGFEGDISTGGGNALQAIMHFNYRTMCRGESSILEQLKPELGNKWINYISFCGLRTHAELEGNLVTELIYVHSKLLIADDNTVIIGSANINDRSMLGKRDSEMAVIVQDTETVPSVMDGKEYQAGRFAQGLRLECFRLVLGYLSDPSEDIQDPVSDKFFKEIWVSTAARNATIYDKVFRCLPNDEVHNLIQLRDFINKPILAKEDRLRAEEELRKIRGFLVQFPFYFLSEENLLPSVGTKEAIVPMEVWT

[4] = biological target: PLD2 (HEK293-gfpPLD2 cells) (Homo sapiens, UniProt O14939); assay: Endogenous PLD activity assay; assay type: cell-based
PLD2 (HEK293-gfpPLD2 cells), sequence (O14939 whole entry): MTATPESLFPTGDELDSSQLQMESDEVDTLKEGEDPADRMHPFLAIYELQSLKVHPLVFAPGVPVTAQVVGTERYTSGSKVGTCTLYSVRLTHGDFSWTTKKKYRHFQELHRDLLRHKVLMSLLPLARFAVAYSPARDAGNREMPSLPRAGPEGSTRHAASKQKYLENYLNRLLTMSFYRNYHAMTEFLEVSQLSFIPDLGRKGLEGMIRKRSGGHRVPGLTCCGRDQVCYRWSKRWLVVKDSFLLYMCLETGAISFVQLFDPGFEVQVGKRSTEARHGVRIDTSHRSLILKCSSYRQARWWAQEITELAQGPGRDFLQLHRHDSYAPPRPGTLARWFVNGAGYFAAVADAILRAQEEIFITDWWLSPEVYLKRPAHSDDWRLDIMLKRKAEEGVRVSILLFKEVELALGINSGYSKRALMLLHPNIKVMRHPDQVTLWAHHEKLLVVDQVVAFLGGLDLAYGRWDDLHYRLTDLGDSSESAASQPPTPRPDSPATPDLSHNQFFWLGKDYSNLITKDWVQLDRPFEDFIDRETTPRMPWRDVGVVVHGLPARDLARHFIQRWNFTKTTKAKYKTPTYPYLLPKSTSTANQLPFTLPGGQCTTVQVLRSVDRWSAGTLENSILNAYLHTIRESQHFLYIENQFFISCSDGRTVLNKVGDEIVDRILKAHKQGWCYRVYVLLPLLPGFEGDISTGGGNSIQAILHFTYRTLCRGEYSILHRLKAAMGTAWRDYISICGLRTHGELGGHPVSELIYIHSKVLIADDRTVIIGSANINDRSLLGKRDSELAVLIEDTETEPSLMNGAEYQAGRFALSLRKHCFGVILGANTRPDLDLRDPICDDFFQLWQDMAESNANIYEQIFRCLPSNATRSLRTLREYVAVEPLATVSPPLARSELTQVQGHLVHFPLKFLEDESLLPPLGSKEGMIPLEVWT

PLD = details: read-out: IC50 (PLD, indirect inhibitor); cited from earlier work

SMILES: CC(C)=CCC/C(C)=C/CC/C(C)=C/C1C(COP(=O)(O)OP(=O)(O)O)C1(C)CC/C=C(\C)CCC=C(C)C (stereo in doubt) [presqualene diphosphate]
- IC50 [1]: 100 nM
- IC50 (human PLD1b): > 1000 nM

SMILES: O=C(NCCN1CCC(n2c(=O)[nH]c3ccccc32)CC1)c1ccc2ccccc2c1 [Compound 56]
- Invasive migration in transwell invasion assay [2]: significantly (P < 0.05) decrease
- Invasive migration in transwell invasion assay ([3]; 4T1, 20 µM): significantly (P < 0.05) decrease
- Invasive migration in transwell invasion assay (PMT cells): significantly (P < 0.05) decrease

SMILES: O=C(NCCN1CCC(n2c(=O)[nH]c3ccccc32)CC1)[C@@H]1C[C@H]1c1ccccc1 [Compound 58]
- Invasive migration in transwell invasion assay [2]: significantly decreased cell migration
- Invasive migration in transwell invasion assay ([3]; 4T1, 200 nM): significantly decreased cell migration
- Invasive migration in transwell invasion assay ([3]; 4T1, 20 µM): significantly decreased cell migration
- Invasive migration in transwell invasion assay (PMT cells): significantly decreased cell migration

SMILES: O=C(NCCN1CCC(n2c(=O)[nH]c3ccccc32)CC1)c1cc(Br)c(Br)o1 [Compound 64]
- Inhibition of basal and myr-Arf-1-stimulated activity of purified PLD1.d311 (rat PLD1.d311): directly inhibited

SMILES: C[C@@H](CN1CCC(n2c(=O)[nH]c3cc(Cl)ccc32)CC1)NC(=O)c1ccc2ccccc2c1 [Compound 69]
- Invasive migration in transwell invasion assay [2]: significantly decreased cell migration
- Invasive migration in transwell invasion assay ([3]; 4T1, 200 nM): significantly decreased cell migration
- Invasive migration in transwell invasion assay ([3]; 4T1, 20 µM): significantly decreased cell migration
- Invasive migration in transwell invasion assay (PMT cells): significantly decreased cell migration

SMILES: O=C(NCCN1CCC2(CC1)C(=O)NCN2c1ccccc1)c1ccc(C(F)(F)F)cc1 [Compound 70]
- IC50 [4]: > 20000 nM

SMILES: O=C(NCCN1CCC2(CC1)C(=O)NCN2c1ccccc1)c1ccc2ccccc2c1 [Compound 72]
- Invasive migration in transwell invasion assay [2]: significantly decreased cell migration
- Invasive migration in transwell invasion assay ([3]; 4T1, 20 µM): significantly decreased cell migration
- Invasive migration in transwell invasion assay (PMT cells): significantly decreased cell migration

SMILES: O=C(c1ccc(Cl)cc1)N(CCN1CCC2(CC1)C(=O)NCN2c1ccccc1)C(=O)c1ccc(Cl)cc1 [Compound 82]
- Invasive migration in transwell invasion assay [2]: significantly decreased cell migration
- Invasive migration in transwell invasion assay ([3]; 4T1, 20 µM): significantly decreased cell migration
- Invasive migration in transwell invasion assay (PMT cells): significantly decreased cell migration

SMILES: Oc1ccc(/C=C/c2cc(O)cc(O)c2)cc1 [resveratrol]
- IC50 (PLD): > 60000 nM
